pKd: −log10 of the molar value. Where “and” joins values, the source holds several entries; their conditions need not be identical. Equal entries are not always repeated.
Tests used:
IadK3 = IadK3 (Variovorax paradoxus, UniProt A0A0H2LZ84); test: ITC, auxins binding to IadK3; parameters: species or system Variovorax paradoxus CL14
Experimental: (§1) ITC experiments were performed using a MicroCal PEAQ-ITC system (Malvern). All the experiments were performed at […] in a buffer containing 25 mM Tris-HCl (pH 7.5) and 150 mM NaCl (unless otherwise stated). […] Data was analyzed using the MicroCal PEAQ-ITC analysis software. All the measurements were repeated at least 2 times.

IadK3 point mutants = test: IAA binding to IadK3 point mutants (response to reviewers); parameters: species or system Variovorax paradoxus CL14; settings: pocket residues replaced by those of IadK2
From the text: We have performed point mutations for substitute residues in the potential ligand binding pocket of AdgA (now named as IadK3) with corresponding amino acids of AdgB (now named as IadK2). […] One potential explanation could be that residues beyond the putative ligand binding pocket may regulate the conformation of IadK3 and ligand binding specificity. Further studies would be required to further examined the ligand binding specificity of IadK3.

IadG = test: ITC, IAA binding to IadG; parameters: species or system Variovorax paradoxus CL14
Experimental: as §1

IadH = IadH (Variovorax paradoxus, UniProt A0A0H2LZB5); test: ITC, IAA binding to IadH; parameters: species or system Variovorax paradoxus CL14
Experimental: as §1

Iad proteins = test: Thermal shift assay (TSA), other Iad proteins with IAA; assay type: binding, Variovorax paradoxus CL14; settings: for ΔTm: replicates
Experimental: Ligands concentrations were tested at 2- to […] excess (10 to 1,000 μM) relative to the proteins (5 μM). The fluorescence dye SYPRO Orange at a final of 200-fold dilution was used to monitor the unfolding of proteins. The protein and ligand were incubated for 10 min at room temperature before the addition of SYPRO Orange dye. The QuantStudio 1 Plus real-time PCR system (Thermo Fisher) was used to control the temperature increasing from […] to […] with an increment of […] and to monitor the fluorescence (excitation: 520 ± 10 nm and emission: 558 ± 10 nm). Each tested group was run in triplicate and repeated. Data was imported to the Protein Thermal Shift software for analysis and plotting.

Chain of IadH (A0A0H2LZB5 entry or part of it): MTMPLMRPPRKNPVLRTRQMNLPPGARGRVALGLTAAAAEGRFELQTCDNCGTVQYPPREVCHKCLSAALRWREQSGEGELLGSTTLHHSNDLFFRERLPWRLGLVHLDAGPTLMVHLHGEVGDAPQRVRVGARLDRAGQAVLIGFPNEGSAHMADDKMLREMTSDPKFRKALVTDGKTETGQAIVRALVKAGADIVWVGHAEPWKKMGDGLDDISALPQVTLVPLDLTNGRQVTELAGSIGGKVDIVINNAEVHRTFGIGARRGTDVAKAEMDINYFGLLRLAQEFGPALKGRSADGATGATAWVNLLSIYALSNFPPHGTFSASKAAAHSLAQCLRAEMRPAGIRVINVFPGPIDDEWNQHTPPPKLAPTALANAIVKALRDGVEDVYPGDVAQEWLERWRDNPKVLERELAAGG
Chain of IadK3 (A0A0H2LZ84 entry or part of it): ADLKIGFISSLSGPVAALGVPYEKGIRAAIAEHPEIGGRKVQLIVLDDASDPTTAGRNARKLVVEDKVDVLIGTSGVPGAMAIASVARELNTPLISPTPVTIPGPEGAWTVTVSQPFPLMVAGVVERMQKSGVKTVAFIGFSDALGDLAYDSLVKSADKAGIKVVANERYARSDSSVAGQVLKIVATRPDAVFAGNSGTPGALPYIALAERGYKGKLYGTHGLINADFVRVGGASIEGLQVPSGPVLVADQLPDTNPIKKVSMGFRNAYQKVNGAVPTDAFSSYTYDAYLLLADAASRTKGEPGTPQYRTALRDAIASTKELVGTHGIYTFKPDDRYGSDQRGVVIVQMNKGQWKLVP

**Q.** `O=C(O)Cc1c[nH]c2ccccc12` [IAA, indole-3-acetic acid] was tested. Which pKd (IadK3; IadK3, ITC, replicates, read-out: ITC binding) did it give?
**A.** < 4.00

**Q.** What about the “binding to IadK3 (ITC)” value (IadK3; result in words) of the same molecule?
**A.** no obvious binding

**Q.** What about the “binding of IAA to IadK3 point mutants” value (IadK3 point mutants) of the same molecule?
**A.** none of the mutations could make IadK3 bind with IAA

**Q.** What about the “IAA binding (ITC)” value (IadG) of the same molecule?
**A.** no binding detected

**Q.** And the pKd (IadG; ITC, replicates)?
**A.** < 4.00

**Q.** And the “IAA binding (ITC)” value (IadH)?
**A.** no binding detected

**Q.** And the pKd (IadH; ITC, replicates)?
**A.** < 4.00

**Q.** What about the “effect on melting temperature (TSA)” value (Iad proteins; Iad proteins other than IadK2, result in words) of the same molecule?
**A.** no profound effects

**Q.** And the ΔTm (Iad proteins; IadC with IAA)?
**A.** -0.4983 °C and 0.9966 °C and 0 °C

**Q.** And the ΔTm (Iad proteins; IadF with IAA)?
**A.** 0.4983 °C and -0.9966 °C and 0 °C

**Q.** And the ΔTm (Iad proteins; IadG with IAA)?
**A.** 1.495 °C (2×) and 1.993 °C

**Q.** What about the ΔTm (Iad proteins; IadH with IAA) of the same molecule?
**A.** 0.9966 °C and 0 °C and -0.4983 °C

**Q.** What about the ΔTm (Iad proteins; IadI with IAA) of the same molecule?
**A.** 0.4983 °C and -0.4983 °C and -1.993 °C

**Q.** What about the ΔTm (Iad proteins; IadJ with IAA) of the same molecule?
**A.** 0 °C and 0.4983 °C and 1.495 °C

Source: PMC10374108, “Structural and biochemical characterization of the key components of an auxin degradation operon from the rhizosphere bacterium Variovorax” (PLOS Biology, 2023)
